Reference: US9394284B2, “Compounds act at multiple prostaglandin receptors giving a general anti-inflammatory response” (Allergan, Inc., priority 2010, dated 2016)

What was measured:
Format in all cases: cell-based
[1] = biological target: T1, human prostanoid TP receptor (Homo sapiens, UniProt P21731); assay: FLIPR Ca2+ signaling antagonist assay, TP receptor stable cell line; settings: HEK-293 EBNA stable cell line; standard agonist U-46619; NA = inactive (no antagonism or Kb 10,000 nM); PAg, Ag not defined
T1 construct: expressed in transfected cells
T1 sequence (P21731 1-343): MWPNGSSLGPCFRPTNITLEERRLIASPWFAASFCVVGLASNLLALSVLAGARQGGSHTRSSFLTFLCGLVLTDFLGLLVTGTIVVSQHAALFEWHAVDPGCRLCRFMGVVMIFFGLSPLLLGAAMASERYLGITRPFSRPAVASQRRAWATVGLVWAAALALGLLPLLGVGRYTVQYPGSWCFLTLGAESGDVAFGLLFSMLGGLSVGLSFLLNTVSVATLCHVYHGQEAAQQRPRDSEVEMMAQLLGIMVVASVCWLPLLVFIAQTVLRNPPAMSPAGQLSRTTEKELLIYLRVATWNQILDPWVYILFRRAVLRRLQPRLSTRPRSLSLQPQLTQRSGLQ
Protocol: (§1) The above compounds were tested for PG antagonist activity as follows using human recombinant prostanoid receptor (DP1, EP1-4, FP, IP and TP) stable cell lines:
(§2) In order to measure the response of Gs and Gi coupled prostanoid receptors as a Ca^2+ signal, chimeric G protein cDNAs were used. Stable cell lines over-expressing human prostanoid DP1, EP1-4, FP, IP, and TP receptors were established as follows:
(§3) Briefly, human prostanoid DP1, EP2, and EP4 receptor cDNAs were co-transfected with chimeric Gqs cDNA containing a haemagglutanin (HA) epitope; human prostanoid EP3 receptors were co-transfected with chimeric Gqi-HA; human EP1, FP, IP, and TP receptor cDNAs were expressed with no exogenous G-proteins. Gqs and Gqi chimeric cDNAs (Molecular Devices, Sunnyvale, Calif., U.S.A.), as well as cDNAs of prostanoid receptors, were cloned into a pCEP4 vector with a hygromycin B selection marker. Transfection into HEK-293 EBNA (Epstein-Barr virus nuclear antigen) cells was achieved by the FuGENE 6 transfection Reagent (Roche Applied Science, Indianapolis, Ind., USA). Stable transfectants were selected according to hygromycin resistance. Because Gqs and Gqi contained an HA epitope, G-protein expression was detected by Western blotting analysis using anti-mouse HA monoclonal antibody and horseradish peroxidase (HRP)-conjugated secondary antibody, while functional expression of prostanoid receptors was detected by FLIPR screening (Matias et al., 2004). These stable cell lines were validated using previously published antagonists at 10 μM against serial dilutions of standard agonists by FLIPR functional assays for Ca^2+ Signaling (as described below).
(§4) Ca^2+ signaling studies were performed using a FLIPR TETRA system (Molecular Devices, Sunnyvale, Calif., USA) in the 384-format. This is a high-throughput instrument for cell-based assays to monitor Ca^2+ signaling associated with GPCRs and ion channels. Cells were seeded at a density of 5×10^4 cells/well in BioCoat poly-D-lysine coated, black wall, clear bottom 384-well plates (BD Biosciences, Franklin lakes, NJ, USA) and allowed to attach overnight in an incubator at 37° C. The cells were then washed twice with HBSS-HEPES buffer (Hanks' balanced salt solution without bicarbonate and phenol red, 20 mM HEPES, pH 7.4) using an ELx405 Select CW Microplate Washer (BioTek, Winooski, Vt., USA). After 60 min of dye-loading in the dark using the Ca^2+-sensitive dye Fluo-4AM (Invitrogen, Carlsbad, Calif., USA), at a final concentration of 2×10^−6M, the plates were washed 4 times with HBSS-HEPES buffer to remove excess dye and leaving 50 μl of buffer in each well. The plates were then placed in the FLIPR TETRA instrument and allowed to equilibrate at 37° C. AGN-211377 was added in a 25 μl volume to each well to give final concentrations of 0.1 μM, 0.3 μM, 1 μM, 3 μM, 10 μM, and 30 μM; or 0.067 μM, 0.1 μM, 0.2 μM, 0.3 μM, 0.67 μM, and 1 μM for cells over-expressing TP receptors. After 4.5 minutes, a 7-point serial dilution of the standard agonist for the corresponding receptor, in a 25 μl volume was injected at the final concentrations from 10^−11M to 10^−5M in 10-fold serial dilution increments for cells expressing human recombinant DP1, EP1, EP2, EP3, EP4, FP, and IP receptors. The dose range for the standard agonist for human recombinant TP receptors was from 10^−12 M to 10^−6 M. HBSS-HEPES buffer was used as the negative control for the standard agonists. Cells were excited with LED (light emitting diode) excitation at 470-495 nm and emission was measured through an emission filter at 515-575 nm. Assay plates were read for 3.5 minutes using the FLIPR^TETRA. The peak increase in fluorescence intensity was recorded for each well. On each plate, negative controls, dose response of positive controls, and co-treatments of antagonist-agonist for each dose were in triplicates.
(§5) Standard agonists were as follows: DP=BW 245C, EP1-EP4=PGE2, FP=17-phenyl-PGF2α, IP=Cicaprost, and TP=U-46619. […]

[2] = biological target: T2, human prostanoid FP receptor (Homo sapiens, UniProt P43088); assay: FLIPR Ca2+ signaling antagonist assay, FP receptor stable cell line; settings: HEK-293 EBNA stable cell line; standard agonist 17-phenyl-PGF2α; NA = inactive (no antagonism or Kb 10,000 nM); PAg, Ag not defined
T2 construct: expressed in transfected cells
T2 sequence (P43088 whole entry): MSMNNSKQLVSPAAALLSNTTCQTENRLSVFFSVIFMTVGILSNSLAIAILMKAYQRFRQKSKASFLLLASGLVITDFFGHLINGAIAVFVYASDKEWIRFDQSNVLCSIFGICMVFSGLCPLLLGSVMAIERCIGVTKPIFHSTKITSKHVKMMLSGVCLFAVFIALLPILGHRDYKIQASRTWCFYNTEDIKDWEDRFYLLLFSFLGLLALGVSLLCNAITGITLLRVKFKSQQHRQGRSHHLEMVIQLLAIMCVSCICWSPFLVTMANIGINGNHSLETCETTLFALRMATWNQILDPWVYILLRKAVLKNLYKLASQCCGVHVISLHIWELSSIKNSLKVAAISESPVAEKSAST
Protocol: as §1, §2, §3, §4, §5

[3] = biological target: T3, human prostanoid DP1 receptor (Homo sapiens, UniProt Q13258); assay: FLIPR Ca2+ signaling antagonist assay, DP1 receptor stable cell line; settings: HEK-293 EBNA stable cell line; standard agonist BW 245C; NA = inactive (no antagonism or Kb 10,000 nM); PAg, Ag not defined
T3 construct: expressed in transfected cells
T3 sequence (Q13258 1-359): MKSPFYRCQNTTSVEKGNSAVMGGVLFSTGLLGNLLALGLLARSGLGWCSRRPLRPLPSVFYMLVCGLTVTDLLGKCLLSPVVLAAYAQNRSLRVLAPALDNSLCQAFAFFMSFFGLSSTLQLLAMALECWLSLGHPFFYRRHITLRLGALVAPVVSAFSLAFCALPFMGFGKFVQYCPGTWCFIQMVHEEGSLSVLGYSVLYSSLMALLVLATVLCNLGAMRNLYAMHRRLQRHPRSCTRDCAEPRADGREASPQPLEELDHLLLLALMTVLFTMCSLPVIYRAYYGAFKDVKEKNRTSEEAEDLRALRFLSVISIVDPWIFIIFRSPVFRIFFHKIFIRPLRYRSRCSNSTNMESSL
Protocol: as §1, §2, §3, §4, §5

[4] = biological target: T4, human prostanoid EP1 receptor (Homo sapiens, UniProt P34995); assay: FLIPR Ca2+ signaling antagonist assay, EP1 receptor stable cell line; settings: HEK-293 EBNA stable cell line; standard agonist PGE2; NA = inactive (no antagonism or Kb 10,000 nM); PAg, Ag not defined
T4 construct: expressed in transfected cells
T4 sequence (P34995 1-402): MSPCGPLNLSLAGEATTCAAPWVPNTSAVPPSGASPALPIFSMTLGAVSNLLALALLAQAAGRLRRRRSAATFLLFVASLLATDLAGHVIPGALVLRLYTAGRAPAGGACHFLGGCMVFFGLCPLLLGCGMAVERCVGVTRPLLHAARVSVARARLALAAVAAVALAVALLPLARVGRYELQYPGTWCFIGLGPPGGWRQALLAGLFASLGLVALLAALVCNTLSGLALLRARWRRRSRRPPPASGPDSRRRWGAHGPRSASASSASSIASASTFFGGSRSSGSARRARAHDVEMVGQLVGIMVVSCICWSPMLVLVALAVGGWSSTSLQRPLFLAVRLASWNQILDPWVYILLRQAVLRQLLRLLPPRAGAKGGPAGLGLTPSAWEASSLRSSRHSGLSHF
Protocol: as §1, §2, §3, §4, §5

[5] = biological target: T5, human prostanoid EP4 receptor (Homo sapiens, UniProt P35408); assay: FLIPR Ca2+ signaling antagonist assay, EP4 receptor stable cell line; settings: HEK-293 EBNA stable cell line; standard agonist PGE2; NA = inactive (no antagonism or Kb 10,000 nM); PAg, Ag not defined
T5 construct: expressed in transfected cells
T5 sequence (P35408 whole entry): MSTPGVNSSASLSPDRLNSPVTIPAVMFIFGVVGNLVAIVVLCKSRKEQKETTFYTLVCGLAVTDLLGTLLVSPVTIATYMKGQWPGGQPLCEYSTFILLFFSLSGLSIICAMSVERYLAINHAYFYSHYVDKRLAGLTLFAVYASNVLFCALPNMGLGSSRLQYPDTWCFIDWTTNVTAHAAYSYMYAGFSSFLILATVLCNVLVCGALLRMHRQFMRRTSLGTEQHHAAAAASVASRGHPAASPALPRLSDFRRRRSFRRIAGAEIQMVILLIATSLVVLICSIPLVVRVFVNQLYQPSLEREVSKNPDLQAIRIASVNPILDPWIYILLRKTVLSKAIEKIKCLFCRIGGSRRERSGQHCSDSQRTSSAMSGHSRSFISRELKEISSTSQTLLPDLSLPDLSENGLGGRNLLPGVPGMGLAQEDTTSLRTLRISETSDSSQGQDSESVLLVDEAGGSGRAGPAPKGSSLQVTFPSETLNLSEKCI
Protocol: as §1, §2, §3, §4, §5

[6] = biological target: T6, human prostanoid IP receptor (Homo sapiens, UniProt P43119); assay: FLIPR Ca2+ signaling antagonist assay, IP receptor stable cell line; settings: HEK-293 EBNA stable cell line; standard agonist Cicaprost; NA = inactive (no antagonism or Kb 10,000 nM); PAg, Ag not defined
T6 construct: expressed in transfected cells
T6 sequence (P43119 whole entry): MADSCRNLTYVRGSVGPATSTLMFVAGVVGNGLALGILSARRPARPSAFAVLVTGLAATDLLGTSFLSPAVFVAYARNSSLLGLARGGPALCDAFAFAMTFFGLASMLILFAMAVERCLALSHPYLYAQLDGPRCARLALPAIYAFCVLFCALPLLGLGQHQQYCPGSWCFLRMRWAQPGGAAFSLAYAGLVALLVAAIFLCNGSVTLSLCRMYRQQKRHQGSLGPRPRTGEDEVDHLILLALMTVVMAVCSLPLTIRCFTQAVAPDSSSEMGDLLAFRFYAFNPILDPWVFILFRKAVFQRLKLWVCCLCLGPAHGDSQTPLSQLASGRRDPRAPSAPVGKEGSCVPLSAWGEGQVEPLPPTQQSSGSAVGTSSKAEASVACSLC
Protocol: as §1, §2, §3, §4, §5

| Kb [1] [nM] | Kb [2] [nM] | Kb [3] [nM] | Kb [4] [nM] | Kb [5] [nM] | Kb [6] [nM] | DP1 (FLIPR) Kb [3] | EP1 (FLIPR) Kb [4] | SMILES |
| --- | --- | --- | --- | --- | --- | --- | --- | --- |
| 2 | 250 | 400 | 14 | 300 | 3100 | – | – | Cc1cc(CCC(=O)NS(=O)(=O)C(F)(F)F)nn1Cc1cc(Br)ccc1OCC1CCCC1 [Example 18, N-(3-{1-[5-Bromo-2-(2-cyclopentylmethoxy)-benzyl]-5-methyl-1H-pyrazol-3-yl}-propionyl)-C,C,C-trifluoro-methanesulfonamide] |
| 40 | 450 | 560 | 70 | 180 | 1700 | – | – | Cc1cc(CC(C)(C)C(=O)O)nn1Cc1cc(Cl)ccc1OCC1CCCC1 [Example 72, 3-{1-[5-Chloro-2-(2-cyclopentylmethoxy)-benzyl]-5-methyl-1H-pyrazol-3-yl}-2,2-dimethyl-propionic acid] |
| 700 | 1900 | 1500 | 600 | 1890 | 6900 | – | – | COc1ccc(OCC2CCCC2)c(Cn2nc(CCC(=O)O)cc2C)c1 [Example 53, 3-[1-(2-Cyclopentylmethoxy-5-methoxy-benzyl)-5-methyl-1H-pyrazol-3-yl]-propionic acid] |
| 8 | 600 | 1900 | 140 | 3600 | 6000 | – | – | Cc1cc(CCC(=O)O)nn1Cc1cc(Cl)ccc1OCC1(C(F)(F)F)CCC1 [Example 38, 3-[1-(5-Chloro-2-(1-trifluoromethylcyclobutylmethoxy)benzyl)-5-methyl-1H-pyrazol-3-yl]-propionic acid] |
| 120 | 130 | 450 | 30 | 80 | 2000 | – | – | Cc1cc(CC(C)C(=O)O)nn1Cc1cc(Cl)ccc1OCC1CCCC1 (racemic) [Example 70, 3-{1-[5-Chloro-2-(2-cyclopentylmethoxy)-benzyl]-5-methyl-1H-pyrazol-3-yl}-2-methyl-propionic acid] |
| < 1 | 90 | 340 | 140 | 600 | 5200 | – | – | CCC(C)CCOc1ccc(Cl)cc1Cn1nc(CCC(=O)O)cc1C (stereo not drawn) [Example 22, 3-[1-(5-Chloro-2-(3-methylpentyloxy)benzyl)-5-methyl-1H-pyrazol-3-yl]-propionic acid] |
| 7 | 160 | – | 200 | 1200 | 4500 | PAg | – | Cc1cc(CCC(=O)O)nn1Cc1cc(Cl)ccc1C#CCC(C)C [Example 76, 3-{1-[5-Chloro-2-(4-methylpentynyl)-benzyl]-5-methyl-1H-pyrazol-3-yl}-propionic acid] |
| 2 | 400 | 750 | 11 | 600 | 4800 | – | – | C/C=C(\C)COc1ccc(Br)cc1Cn1nc(CCC(=O)O)cc1C [Example 9, 3-[1-(5-Bromo-2-((E)-2-methyl-but-2-enyloxy)-benzyl)-5-methyl-1H-pyrazol-3-yl]-propionic acid] |
| 500 | 500 | 400 | – | 8100 | 2000 | – | PAg | CCCCCCCOc1ccc(Br)cc1Cn1nc(CCC(=O)O)cc1C [Example 15, 3-[1-(5-Bromo-2-heptyloxybenzyl)-5-methyl-1H-pyrazol-3-yl]-propionic acid] |

| SMILES | Kb [1] [nM] | Kb [2] [nM] | Kb [3] [nM] | Kb [4] [nM] | Kb [5] [nM] | Kb [6] [nM] | DP1 (FLIPR) Kb [3] | EP1 (FLIPR) Kb [4] |
| --- | --- | --- | --- | --- | --- | --- | --- | --- |
| CCC(CC)COc1ccc(C(F)(F)F)cc1Cn1nc(CCC(=O)O)cc1C [Example 46, 3-[1-[2-(2-Ethyl-butoxy)-5-trifluoromethyl-benzyl]-5-methyl-1H-pyrazol-3-yl]-propionic acid] | 3 | 240 | 700 | 40 | 170 | 2100 | – | – |
| C#Cc1ccc(OCC(CC)CC)c(Cn2nc(CCC(=O)O)cc2C)c1 [Example 64, 3-{1-[5-Ethynyl-2-(2-ethyl-butoxy)-benzyl]-5-methyl-1H-pyrazol-3-yl}-propionic acid] | 9 | 50 | 800 | 270 | 500 | 2000 | – | – |
| CCC(C)COc1ccc(Br)cc1Cn1nc(CCC(=O)O)cc1C (stereo not drawn) [Example 10, 3-[1-(5-Bromo-2-(2-methyl-butoxy)-benzyl)-5-methyl-1H-pyrazol-3-yl]-propionic acid] | 2 | 70 | 360 | 12 | 100 | 4200 | – | – |
| CCC(CC)COc1ccc(Br)cc1Cn1ccc(CCC(=O)O)n1 [Example 59, 3-{1-[5-Bromo-2-(2-ethyl-butoxy)-benzyl]-1H-pyrazol-3-yl}-propionic acid] | 1 | 1200 | 300 | 160 | 100 | 2700 | – | – |
